Source: US20260117192A1, “METHODS OF PRODUCING A TUMOR AVATAR” (ARIEL SCIENTIFIC INNOVATIONS LTD., priority 2023, published 2026)

What was measured:
[1] = test system: gastric cancer organoids; experiment: Drug cytotoxicity, CellTiter-Glo cell viability and bright field images, organoids; assay type: cell-based, human; conditions: for effect on viability: targeted drugs, 72 hours (dasatinib 0.180 μM, gefitinib 3 μM, imatinib 4 μM, capmatinib 8 μM); for cell death: targeted drugs at concentrations found in peripheral blood (crizotinib 1 μM, osimertinib 0.8 μM, afatinib 0.150 μM)
Protocol: (§1) Organoids and stroma cells isolation and culture: Human gastric cancer along with surrounding normal tissue were obtained from a consenting patient undergoing surgery at Ichilov Hospital, with approval from the Institutional Review Board. The samples were transported in cold hypothermosol medium and processed within 24 hours post-surgery. Upon acquisition, the tumor tissue was divided into three equal parts for various analyses. One third was snap-frozen for subsequent DNA isolation, another third was fixed in 4% paraformaldehyde for histological examination, and the remaining portion was prepared for cell culture. The tissue underwent digestion using Collagenase I (1 mg/ml), Liberase, and DNAse (10 ug/ml), followed by separation into organoids and stroma cell cultures. Organoids were cultured as previously described hereinbelow, with medium replacement twice weekly and passaging via mechanical and enzymatic dissociation using TrypLE enzyme. Stroma cells were cultured in mesenchymal stem cell medium (MSCM) on pre-coated Matrigel (20%) and fibronectin (2 μg/cm2) 4-well dish plates. Upon reaching 80% confluency the cells were subculturing using accutase to 6 well plate and then to 25 cm flask. From passage 3 onwards, cells were sub-cultured in 25 cm flask and then in 75 cm flasks using MSCM, endothelial cell medium (ECM), or fibroblast medium (FM-2) for subsequent passages. Bright field images were obtained using Operetta High Content Screening System or Leica microscope.
(§2) Cell viability assay: To assess co-culture growth rates and the cytotoxic effects of various drugs, a luminescent cell viability assay was conducted using the CellTiter-Glo kit from Promega following the manufacturer's guidelines. For the drug cytotoxicity assay, co-cultures or organoids were seeded in 384-well plates and allowed to organize for 48 hours. […] The chosen drug concentrations were based on their higher plasma concentration values. Following treatment, each well containing co-cultures or organoids was lysed using CellTiter-Glo reagents, thoroughly mixed, and incubated for 30 minutes, after which luminescence was measured.

[2] = test system: ECM:FM2:ORG co-cultures (TECs:TASCs:Org); experiment: Drug cytotoxicity, CellTiter-Glo cell viability and bright field images, organoid-stroma cell co-cultures; assay type: cell-based, human; conditions: for effect on viability: co-culture, targeted drugs, 72 hours (afatinib 0.150 μM, osimertinib 0.8 μM, dasatinib 0.180 μM, gefitinib 3 μM, imatinib 4 μM, capmatinib 8 μM)
Protocol: Organoid-stroma cells co-culture: Initially, organoids were mechanically dissociated into smaller fragments through pipetting, followed by enzymatic digestion into single cells using dispase II at 37° C. for 20 minutes. Concurrently, stroma cells cultured in FM-2, ECM, and MSCM, as well as Huvec cells cultured in ECM, were harvested at 80% confluency in the flask and dissociated using accutase. In certain experiments, after cells dissociation, each cell population was stained with a vital dye before their co-culture. Cells cultured in ECM and Huvec cell lines were stained blue using the CellTrace Violet Dye Proliferation Kit. […] Imaging was performed at 10× magnification using an Olympus Confocal Microscope. Subsequently, dissociated cells were mixed in 35 ul of co-culture medium, at ratios of 1:1:1, 1:4:1, 4:1:1 and 1:1:4 of Huvec or cells cultured in ECM, cells cultured in FM2 and organoids respectively. Co-cultures composed of ECM:organoids (ORG), FM2:ORG, and Huvec:ORG were also created at 1:1, 1:4, and 4:1 ratios, respectively. Each mix, containing 4000 cells, was then co-cultured in 384 wells low repellent plates, with DMEM/F12 medium supplemented with 10 mM HEPES, abam, 2 mM glutamax, non-essential amino acids, sodium pyruvate, 500 ng ml-1 R-spondin, 100 ng ml-1 noggin, 100 ng ml-1 Wnt3A, 10 nM gastrin, Prostaglandin E2, 100 ng ml-1 IGF1, 10 ng·ml-1 FGF2, 10 ng·ml-1 FGF10, 50 ng·ml-1 EGF, B27, 0.5 μM A 83-01, 4 mM nicotinamide, 10 μM Y-27632, 1 μg ml-1 hydrocortisone, 50 μg ml-1 ascorbic acid, 5 ng ml-1 VEGF and 100 ng ml-1 IL-6, 4 μg ml-1 heparin, and 5% fetal calf serum in 10 ng·ml-1 and fibronectin and 5% Matrigel as scaffold and incubated in 5% CO2 at 37° C. for different intervals of time.
as §2

[3] = test system: stroma cell monocultures; experiment: Drug cytotoxicity, CellTiter-Glo cell viability, stroma cell monocultures; assay type: cell-based, human; conditions: stroma cells monocultures, targeted drugs, 72 hours (dasatinib 0.180 μM, imatinib 4 μM, capmatinib 8 μM)
Protocol: as §1, with “Stroma cells were cultured in mesenchymal stem cell medium (MSCM) on pre-coated Matrigel (20%) and fibronectin (2 μg/cm2) 4-well dish plates. Upon reaching 80% confluency the cells were subculturing using accutase to 6 well plate and then to 25 cm flask. From passage 3 onwards, cells were sub-cultured in 25 cm flask and then in 75 cm flasks using MSCM, endothelial cell medium (ECM), or fibroblast medium (FM-2) for subsequent passages. Bright field images were obtained using Operetta High Content Screening System or Leica microscope.” left out
(§3) Cell viability assay: To assess co-culture growth rates and the cytotoxic effects of various drugs, a luminescent cell viability assay was conducted using the CellTiter-Glo kit from Promega following the manufacturer's guidelines. […] Following treatment, each well containing co-cultures or organoids was lysed using CellTiter-Glo reagents, thoroughly mixed, and incubated for 30 minutes, after which luminescence was measured.

[4] = test system: pancreas organoids; experiment: Celltiter-Glo viability of drug treated pancreas organoids; assay type: cell-based, human; conditions: 72 hours treatment
Protocol: (§4) FIGS. 10A-10B: (10A) Representative immunofluorescence and brightfield images of human pancreas tumor avatar composed of Huvec endothelial cells, Org and TASCs mix at a 1:1:1, 1:4:1 or 4:1:1 ratio, respectively cultivated in a Matrigel (5%) and fibronectin scaffold (10 ng/ml), during 6 days. Org were stained with Cell Vue Claret far red fluorochrome (purple cells). Cell viability was assessed by Calcein (green)/PI (red) staining and images were acquired with Operetta Imager at 5× magnification. (10B) Line graphs showing relative light unit percentage (RLU %) of everolimus or FOLFOX treated pancreas tumor avatars and organoids as compared with their respective vehicle controls, after the same day of drug or vehicle exposure, (RLU %=RLUtreatment*100)/RLUveh). Tumor avatars were cultured for 3 days, treated with the specified drugs for other 72 hours and viability determined by Celltiter-Glo assay.
(§5) Next, the inventors aimed to examine a tumor avatar model, composed of pancreas tumor epithelial cells, TASCs and Huvec cells, cultured in the presence of a Matrigel and fibronectin scaffold. Huvec, TASCs and […] organoid-derived tumor epithelial cells clusters (5-15 cells/cluster) were seeded at different ratios (1:1:1, 1:4:4 or 4:1:4 respectively) and cultured for 6 days. Tumor cells, labelled with CellVue Claret far red fluorochrome localized in the interior of the tumor avatar.

[5] = test system: human pancreas tumor avatar; experiment: Celltiter-Glo viability of drug treated pancreas tumor avatars; assay type: cell-based; conditions: pancreas tumor avatars (Huvec, TASCs, Org), cultured 3 days, treated 72 hours
Protocol: as §4, §5

[6] = test system: HUVEC:FM-2:ORG co-cultures; experiment: Drug cytotoxicity, CellTiter-Glo cell viability, co-cultures containing Huvec cells; assay type: cell-based, human; conditions: paclitaxel 5 μM, 72 hours
Protocol: Organoid-stroma cells co-culture: Initially, organoids were mechanically dissociated into smaller fragments through pipetting, followed by enzymatic digestion into single cells using dispase II at 37° C. for 20 minutes. Concurrently, stroma cells cultured in FM-2, ECM, and MSCM, as well as Huvec cells cultured in ECM, were harvested at 80% confluency in the flask and dissociated using accutase. In certain experiments, after cells dissociation, each cell population was stained with a vital dye before their co-culture. Cells cultured in ECM and Huvec cell lines were stained blue using the CellTrace Violet Dye Proliferation Kit. […] Imaging was performed at 10× magnification using an Olympus Confocal Microscope. Subsequently, dissociated cells were mixed in 35 ul of co-culture medium, at ratios of 1:1:1, 1:4:1, 4:1:1 and 1:1:4 of Huvec or cells cultured in ECM, cells cultured in FM2 and organoids respectively. […]
as §3

[7] = test system: human gastric tumor avatars in the presence of lymphocytes; experiment: Cell-Titer Glo viability of gastric tumor avatars with peripheral blood lymphocytes; assay type: cell-based; conditions: avatars of patient 1 and patient 2 with autologous lymphocytes, various concentrations, 72 hours
Excerpt: FIGS. 12A-12F: (12A) Representative brightfield images of human gastric tumor avatars from a patient with gastrointestinal sarcoma (patient 1) and a second patient (patient 2) with gastric adenocarcinoma, composed of organoids and stroma cells. Cells were dissociated from gastric tissue and cultured in a Matrigel dome in an adherent plate in tumor avatar medium from day 0. After 7 days of culture, organoids remain in the dome and stroma cells and metastatic tumor cells invaded the tissue culture plate outside the dome. […] (12B) Representative brightfield images of defrosted human gastric tumor avatars from defrosted tumor avatars. The tumor avatars were sub-cultured in a Matrigel dome using an adherent plate in the presence of tumor avatar medium from day 3 to day 13. […] (12C-12D). Representative brightfield images of human gastric tumor avatars from a patient with gastrointestinal sarcoma (patient 1) and a second patient (patient 2) with gastric adenocarcinoma, composed of organoids and stroma cells. […] Cell viability was detected after 72 hours of treatment using Cell-Titer Glo assay.
Lymphocytes were isolated from the peripheral blood of patient 1 and patient 2. […] Pembrolizumab was added at various concentrations to the tumor avatars and cell viability was monitored for 72 hours after treatment using the Cell-Titer Glo assay.

[8] = test system: patient 1 (gastrointestinal sarcoma) and patient 2 (gastric adenocarcinoma); experiment: Administration to the patients; assay type: in vivo, human; conditions: both patients

Cc1ccc(NC(=O)c2ccc(CN3CCN(C)CC3)cc2)cc1Nc1nccc(-c2cccnc2)n1 [imatinib]
effect on viability ([1]; organoids): neither the organoids nor the co-culture showed significant response | effect on viability [2]: neither the organoids nor the co-culture showed significant response | effect on viability [3]: decreased viability

COc1cc2ncnc(Nc3ccc(F)c(Cl)c3)c2cc1OCCCN1CCOCC1 [gefitinib]
effect on viability ([1]; organoids): neither the organoids nor the co-culture showed significant response | effect on viability [2]: neither the organoids nor the co-culture showed significant response

CO[C@H]1C[C@@H]2CC[C@@H](C)[C@@](O)(O2)C(=O)C(=O)N2CCCC[C@H]2C(=O)O[C@H]([C@H](C)C[C@@H]2CC[C@@H](OCCO)[C@H](OC)C2)CC(=O)[C@H](C)/C=C(\C)[C@@H](O)[C@@H](OC)C(=O)[C@H](C)C[C@H](C)/C=C/C=C/C=C/1C [everolimus]
effect of treatment on viability (RLU %) [4]: neither the organoids nor the tumor avatar models were affected | effect of treatment on viability (RLU %) [5]: neither the organoids nor the tumor avatar models were affected

CC(=O)O[C@H]1C(=O)[C@@]2(C)[C@H]([C@H](OC(=O)c3ccccc3)[C@]3(O)C[C@H](OC(=O)[C@H](O)[C@@H](NC(=O)c4ccccc4)c4ccccc4)C(C)=C1C3(C)C)[C@]1(OC(C)=O)CO[C@@H]1C[C@@H]2O [paclitaxel]
cytotoxicity at 5 µM ([1]; Homo sapiens, 72 h, read-out: decrease in cell viability): 53% | size and integrity in bright field images ([1]; organoids, paclitaxel 5 μM, 72 hours): reduced the size and affected the integrity | cell death ([2]; TECs:TASCs:Org ratio 1:1:4, paclitaxel 5 μM, 72 hours): 22% | cell death ([2]; TECs:TASCs:Org ratios 1:1:1, 4:1:1 and 1:4:1, paclitaxel 5 μM, 72 hours): approximately 40% | size and integrity in bright field images ([2]; co-cultures, paclitaxel 5 μM, 72 hours): reduced the size and affected the integrity | cell death [6]: approximately 10%

Pembrolizumab: Pembrolizumab immunotherapy
effectiveness (cell viability) [7]: effective | patient response [8]: both respond

CNC(=O)c1ccc(-c2cnc3ncc(Cc4ccc5ncccc5c4)n3n2)cc1F [capmatinib]
effect on viability ([1]; organoids): neither the organoids nor the co-culture showed significant response | effect on viability [2]: neither the organoids nor the co-culture showed significant response | effect on viability [3]: decreased viability

C[C@@H](Oc1cc(-c2cnn(C3CCNCC3)c2)cnc1N)c1c(Cl)ccc(F)c1Cl [crizotinib]
cell death ([1]; organoids, 72 hours): more than 50% | cell death ([2]; stroma cells-organoid co-cultures, crizotinib 1 μM, 72 hours): more than 50%

C=CC(=O)Nc1cc(Nc2nccc(-c3cn(C)c4ccccc34)n2)c(OC)cc1N(C)CCN(C)C [osimertinib]
cell death ([1]; organoids, 72 hours): approximately 50% | effect on viability [2]: resistant

CN(C)C/C=C/C(=O)Nc1cc2c(Nc3ccc(F)c(Cl)c3)ncnc2cc1O[C@H]1CCOC1 [afatinib]
cell death ([1]; organoids, 72 hours): approximately 50%
